Patent publication US20230255953A1, “USE OF ROLUPERIDONE IN PREVENTING RELAPSE IN SCHIZOPHRENIA PATIENTS” (Minerva Neurosciences, Inc., priority 2022, published 2023)

Columns and labels:
[1] = system: patients with negative symptoms of schizophrenia; assay: Study #1 (MIN-101C03): Personal and Social Performance (PSP); type: in vivo, human; details: Week 12 DB; for Change from Baseline LS Mean: PSP Disturbing & Aggressive Behavior / Change from Baseline LS Mean: PSP Personal and Social Relationships / Change from Baseline LS Mean: PSP Self-care / Change from Baseline LS Mean: PSP Socially Useful Activities / Change from Baseline LS Mean: PSP Total Score (mapped from the 4 domains) / Effect Size vs Placebo: PSP Disturbing & Aggressive Behavior / Effect Size vs Placebo: PSP Personal and Social Relationships / Effect Size vs Placebo: PSP Self-care / Effect Size vs Placebo: PSP Socially Useful Activities / Effect Size vs Placebo: PSP Total Score (mapped from the 4 domains): ITT
Text: The PSP is a validated clinician-rated scale intended to reflect real-life situations that measures personal and social functioning in 4 domains: (a) socially useful activities, (b) personal and social relationships, (c) self-care, and (d) disturbing and aggressive behaviors. The score is based on the assessment of a patient's performance in the 4 domains. The PSP Total score is a single measurement of functioning ranging from 1 to 100, where a higher score represents better functioning. A score of 91 to 100 indicates excellent functioning in all 4 main areas; the patient is held in high consideration for their good qualities, copes adequately with life problems, and is involved in a wide range of interests and activities. A score of 1 to 10 indicates a lack of autonomy in basic functioning with extreme behaviors but without survival risk (score 6 to 10) or with survival risk (score 1 to 5). […] Review of the relevant scientific literature and the analysis of the psychometric properties of the 4 domains that result in the generation of the PSP Total score were supportive of the appropriateness and cross-cultural applicability of the use of the PSP in drug development for the indication of negative symptoms of schizophrenia The PSP was assessed at the timepoints described in Table 6. The changes from Baseline in the PSP Total score and individual domain scores after 12 weeks of treatment were exploratory efficacy endpoints in Study MIN-101C03, and the Total score was the key secondary efficacy endpoint and the PSP domain scores were exploratory endpoints in Study MIN-101C07.
Phase 2b Study #1 (also referred to herein as “MIN-101C03”) was a Phase 2b, double-blind (“DB”), placebo-controlled, randomized, multicenter 12-week study to evaluate the efficacy, safety, and tolerability of Roluperidone in patients ≥18 years to ≤60 years with negative symptoms of schizophrenia, followed by a 24-week open-label (“OL”) extension. The primary objective of the study was to evaluate the efficacy of Roluperidone compared to placebo in improving the negative symptoms of schizophrenia as measured by the change from Baseline in the PANSS negative factor score of the PSM (“PANSS PSM”) over 12 weeks of treatment.
The study consisted of a pretreatment screening period of up to 28 days (including washout), a 12-week, DB, placebo-controlled period, and a 24-week OL period. Eligible patients (who were symptomatically stable for at least 3 months and had scores of at least 20 on the PANSS negative subscale score) were randomized in a 1:1:1 ratio to receive oral Roluperidone (a modified-release, “MR”, formulation) 32 mg QD, Roluperidone 64 mg QD, or placebo for 12 weeks. […] During the 24-week, OL treatment extension period, patients who were initially randomized to Roluperidone 32 mg or 64 mg continued on the same dose, while patients who were initially randomized to placebo crossed over to Roluperidone 32 mg or 64 mg in a 1:1 ratio.

[2] = system: patients with negative symptoms of schizophrenia; assay: Study #2 (MIN-101C07): Total Verbal Fluency; type: in vivo, human; details: Week 12 DB, ITT
Text: Study #2 (also referred to as “MIN101C07”) was a Phase 3, randomized, DB, placebo-controlled, parallel-group 12-week study to evaluate the efficacy and safety of Roluperidone in patients ≥18 years to ≤55 years with negative symptoms of schizophrenia, followed by a 40-week OL extension. The study consisted of a pretreatment screening period of up to 28 days (including an antipsychotic medication washout period), a 12-week, DB, placebo-controlled period, and a 40-week OL period. Eligible patients (with moderate to severe negative symptoms of schizophrenia and stable positive symptoms but without severe symptoms of suspiciousness, agitation, hostility, uncooperativeness, or poor impulse control) were randomized 1:1:1 to receive Roluperidone 32 mg QD, Roluperidone 64 mg QD (GR01/B formulation, see U.S. Pat. No. 11,464,744), or placebo, orally, for 12 weeks. […] During the 40-week OL treatment extension, patients who were initially randomized to Roluperidone 32 mg or 64 mg continued treatment with the same dose, while patients who were initially randomized to placebo crossed over to Roluperidone 32 mg or 64 mg in a 1:1 ratio.

1H-Isoindol-1-one,2-[ [1-[2-(4-fluorophenyl)-2-oxoethyl]-4-piperidinyl]methyl]-2,3-dihydro-, hydrochloride, hydrate (1:1:2) [Roluperidone]
Effect Size vs Placebo: 7-Point improvement in PSP Total Score responders ([1]; 32 mg QD): 0.05 | Effect Size vs Placebo: 10-Point improvement in PSP Total Score responders ([1]; 32 mg QD): 0.05 | Number of Patients with 7-Point improvement in PSP Total Score at Week 12 ([1]; 32 mg QD): 17/50 | Number of Patients with 10-Point improvement in PSP Total Score at Week 12 ([1]; 32 mg QD): 17/50 | Patients with 7-Point improvement in PSP Total Score at Week 12 (%) ([1]; 32 mg QD): (34%) | Patients with 10-Point improvement in PSP Total Score at Week 12 (%) ([1]; 32 mg QD): (34%) | Change from Baseline LS Mean: PSP Disturbing & Aggressive Behavior ([1]; 32 mg QD): −0.15 | Change from Baseline LS Mean: PSP Personal and Social Relationships ([1]; 32 mg QD): −0.22 | Change from Baseline LS Mean: PSP Self-care ([1]; 32 mg QD): −0.37 | Change from Baseline LS Mean: PSP Socially Useful Activities ([1]; 32 mg QD): −0.41 | Change from Baseline LS Mean: PSP Total Score (mapped from the 4 domains) ([1]; 32 mg QD): 1.77 | Effect Size vs Placebo: PSP Disturbing & Aggressive Behavior ([1]; 32 mg QD): 0.36 | Effect Size vs Placebo: PSP Personal and Social Relationships ([1]; 32 mg QD): 0.02 | Effect Size vs Placebo: PSP Self-care ([1]; 32 mg QD): 0.27 | Effect Size vs Placebo: PSP Socially Useful Activities ([1]; 32 mg QD): 0.14 | Effect Size vs Placebo: PSP Total Score (mapped from the 4 domains) ([1]; 32 mg QD): −0.01 | Effect Size vs Placebo: 7-Point improvement in PSP Total Score responders ([1]; 64 mg QD): 0.17 | Effect Size vs Placebo: 10-Point improvement in PSP Total Score responders ([1]; 64 mg QD): 0.17 | Number of Patients with 7-Point improvement in PSP Total Score at Week 12 ([1]; 64 mg QD): 26/54 | Number of Patients with 10-Point improvement in PSP Total Score at Week 12 ([1]; 64 mg QD): 26/54 | Change from Baseline LS Mean: PSP Disturbing & Aggressive Behavior ([1]; 64 mg QD): −0.24 | Change from Baseline LS Mean: PSP Personal and Social Relationships ([1]; 64 mg QD): −0.56 | Change from Baseline LS Mean: PSP Self-care ([1]; 64 mg QD): −0.48 | Change from Baseline LS Mean: PSP Socially Useful Activities ([1]; 64 mg QD): −0.57 | Change from Baseline LS Mean: PSP Total Score (mapped from the 4 domains) ([1]; 64 mg QD): 8.52 | Effect Size vs Placebo: PSP Disturbing & Aggressive Behavior ([1]; 64 mg QD): 0.51 | Effect Size vs Placebo: PSP Personal and Social Relationships ([1]; 64 mg QD): 0.53 | Effect Size vs Placebo: PSP Self-care ([1]; 64 mg QD): 0.46 | Effect Size vs Placebo: PSP Socially Useful Activities ([1]; 64 mg QD): 0.38 | Effect Size vs Placebo: PSP Total Score (mapped from the 4 domains) ([1]; 64 mg QD): 0.56 | Change from Baseline LS Mean: Total Verbal Fluency (sum of 3 trials) ([2]; 32 mg QD): 3.9 | Effect Size (Cohen's d) vs Placebo: Total Verbal Fluency ([2]; 32 mg QD): 0.21 | Change from Baseline LS Mean: Total Verbal Fluency (sum of 3 trials) ([2]; 64 mg QD): 1.7 | Effect Size (Cohen's d) vs Placebo: Total Verbal Fluency ([2]; 64 mg QD): −0.10
